Experimental data from ChEMBL document CHEMBL5550093, “Design, synthesis and antitumor activity of 2-substituted quinazoline-4-amine derivatives” (Bioorg Med Chem, 2024).
Activity calls are given as the source filed them. The rule behind the calls is not given here.

Assays:
[1] = system: PC-3; assay: Antiproliferative activity against human PC-3 cells at 5 uM incubated for 48 hrs by MTT assay relative to control; assay type: functional
[2] = Antiproliferative activity against HEK293T cells at 5 uM incubated for 48 hrs by MTT assay relative to control; assay type: toxicity, cell-based, HEK-293T; conditions: human
[3] = system: K562; assay: Antiproliferative activity against human K562 cells at 5 uM incubated for 48 hrs by MTT assay relative to control; assay type: functional
[4] = system: A549; assay: Antiproliferative activity against human A549 cells at 5 uM incubated for 48 hrs by MTT assay relative to control; assay type: functional
[5] = system: HeLa; assay: Antiproliferative activity against human HeLa cells at 5 uM incubated for 48 hrs by MTT assay relative to control; assay type: functional
[6] = system: A549; assay: Antiproliferative activity against human A549 cells incubated for 48 hrs by MTT assay; assay type: functional, cell-based; conditions: A549, 48 h
[7] = system: PC-3; assay: Antiproliferative activity against human PC-3 overexpressing WRN cells incubated for 48 hrs by MTT assay; assay type: functional
[8] = system: PC-3; assay: Antiproliferative activity against human PC-3 cells incubated for 48 hrs by MTT assay; assay type: functional, cell-based; conditions: for IC50: PC-3, 48 h; for IC20: PC-3, time 48 hrs
[9] = system: K562; assay: Antiproliferative activity against human K562 cells incubated for 48 hrs by MTT assay; assay type: functional, cell-based; conditions: K562, 48 h
[10] = Antiproliferative activity against HEK293T cells incubated for 48 hrs by MTT assay; assay type: toxicity, cell-based, HEK-293T; conditions: human
[11] = system: HeLa; assay: Antiproliferative activity against human HeLa cells incubated for 48 hrs by MTT assay; assay type: functional, cell-based
[12] = system: PC-3; assay: Inhibition of cell survival in human PC-3 cells at 1000 nM pretreated for 48 hrs followed by fresh media replacement without compound measured after 2 weeks by colony formation assay; assay type: functional, cell-based

| SMILES | inhibition at 5 µM [1] [%] | inhibition at 48 h, 5 µM [2] [%] | inhibition at 5 µM [3] [%] | inhibition at 5 µM [4] [%] | inhibition at 5 µM [5] [%] | IC50 [6] [µM] | IC20 [7] [µM] | IC50 [8] [µM] | IC20 [8] [µM] | IC50 [9] [µM] | IC50 at 48 h [10] [µM] | IC50 [11] [µM] | inhibition [12] |
| --- | --- | --- | --- | --- | --- | --- | --- | --- | --- | --- | --- | --- | --- |
| CCOC(=O)c1c(C)nc(-c2ccc(N(C)c3nc(C(=O)c4ccccc4)nc4ccc(F)cc34)cc2)n1C | 1 | 0.3 | 30.1 | 1.8 | 4 |  |  |  |  |  |  |  |  |
| COc1cccc(C(=O)c2nc(N(C)c3ccc(OC)c(OC)c3)c3ccccc3n2)c1 | 25.3 | 46.3 | 38.8 | 45.4 | 47.1 |  |  |  |  |  |  |  |  |
| COc1ccc(N(C)c2nc(C(=O)c3ccccc3)nc3ccc(F)cc23)cc1 | 40.9 | 39.3 | 24.1 | 25 | 37.8 |  |  |  |  |  |  |  |  |
| COc1ccc(Nc2nc(C(=O)c3cccc(OC)c3)nc3ccccc23)cc1 | 46.5 | 4.7 | 25.2 | 44.3 | 40.1 |  |  |  |  |  |  |  |  |
| COc1ccc(N(C)c2nc(C(=O)c3cccc(OC)c3)nc3ccccc23)cc1 | 58.1 | 59.6 | 61.5 | 52 | 51 | > 10 | 1.07 | 6.6 | 0.975 | 9.3 | 6.4 | > 10 |  |
| COc1ccc(N(C)c2nc(C(F)(F)c3cccc(OC)c3)nc3ccccc23)cc1 | 57.6 | 56.6 | 61.3 | 52.7 | 47.8 | > 10 | 0.144 | 5.6 | 0.25 | 0.3 | 2.1 | > 10 |  |
| COC(=O)c1ccc(N(C)c2nc(C(=O)c3ccc(F)cc3)nc3ccccc23)cc1OC | 43.6 | 38 | 40.2 | 21.9 | 31.2 |  |  |  |  |  |  |  |  |
| CCOC(=O)c1[nH]c(-c2ccc(Nc3nc(C(=O)c4ccccc4)nc4ccc(F)cc34)cc2)nc1C | 44.5 | 58.3 | 55.4 | 40.6 | 34.9 | > 10 | 6.6 | 5.7 | 7.51 | 8 | 6.2 | > 10 |  |
| O=C(c1ccccc1)c1nc(Nc2ccc(OC(F)(F)F)cc2)c2cc(F)ccc2n1 | 47.6 | 23 | 19.3 | 42.2 | 27.8 |  |  |  |  |  |  |  |  |
| COc1ccc(N(C)c2nc([C@@H](N)C(C)C)nc3ccccc23)cc1 | 51.9 | 59.2 | 85.2 | 72.6 | 33.6 | > 10 | 1.11 | 8 | 7.61 | 8 | 7.9 | > 10 | Active |
| Cc1ccc(Nc2nc(C(=O)c3ccc(F)cc3)nc3ccccc23)c(C(=O)O)c1 | -4.2 | 20.6 | 6.5 | 29.9 | 42.7 |  |  |  |  |  |  |  |  |
| CN(c1ccc(OC(F)(F)F)cc1)c1nc(C(=O)c2ccccc2)nc2ccc(F)cc12 | 10.4 | 1.3 | -2.2 | 18.4 | -3.1 |  |  |  |  |  |  |  |  |
| COc1cccc(C(F)(F)c2nc(N(C)c3ccc(OC)c(OC)c3)c3ccccc3n2)c1 | 62.7 | 63.6 | 65.5 | 53.2 | 51.2 | > 10 | 0.123 | > 10 | 0.981 | 0.05 | 1.1 | > 10 | Active |
| COC(=O)c1ccc(Nc2nc(C(=O)c3cccc(OC)c3)nc3ccccc23)cc1OC | 48.3 | 14.5 | 9.5 | 40.1 | 37.7 |  |  |  |  |  |  |  |  |
| COC(=O)c1ccc(Nc2nc(C(=O)c3ccc(F)cc3)nc3ccccc23)cc1 | 19 | 18.9 | 6.8 | 35.7 | 37.8 |  |  |  |  |  |  |  |  |
| CC(C)(CN1C(=O)C(Cl)=C(Cl)C1=O)CN1C(=O)C(Cl)=C(Cl)C1=O | 51.1 | 71 | 35 | 7.3 | 69.1 | 3.4 |  | 6.8 |  | 1.8 | 3.1 | 2.7 |  |
| CC(C)[C@H](N)c1nc(Nc2ccc(N3CCOCC3)cc2)c2ccccc2n1 | 2.1 | 1.2 | 8.2 | -0.7 | 6.5 |  |  |  |  |  |  |  |  |

| SMILES | inhibition at 5 µM [1] [%] | inhibition at 48 h, 5 µM [2] [%] | inhibition at 5 µM [3] [%] | inhibition at 5 µM [4] [%] | inhibition at 5 µM [5] [%] | IC50 [6] [µM] | IC20 [7] [µM] | IC50 [8] [µM] | IC20 [8] [µM] | IC50 [9] [µM] | IC50 at 48 h [10] [µM] | IC50 [11] [µM] | inhibition [12] |
| --- | --- | --- | --- | --- | --- | --- | --- | --- | --- | --- | --- | --- | --- |
| COc1cc(N2CCNCC2)ccc1Nc1nc(C(=O)c2ccc(F)cc2)nc2ccccc12 | 9 | 5.8 | -6.6 | -0.5 | 1.7 |  |  |  |  |  |  |  |  |
| O=C(c1ccc(F)cc1)c1nc(Nc2ccc(N3CCNCC3)c(F)c2)c2ccccc2n1 | -9.6 | 9.5 | -10.7 | 4.1 | 11.3 |  |  |  |  |  |  |  |  |
| COC(=O)c1ccc(Nc2nc(C(=O)c3ccccc3)nc3ccc(F)cc23)cc1 | 29.3 | 11.1 | 19.5 | 17.7 | 0.8 |  |  |  |  |  |  |  |  |
| COc1cccc(C(=O)c2nc(Nc3ccc(OC)c(OC)c3)c3ccccc3n2)c1 | -10.2 | 5.5 | 8.7 | 47.4 | 41.1 |  |  |  |  |  |  |  |  |
| COc1ccc(Nc2nc([C@@H](N)C(C)C)nc3ccccc23)cc1 | -4.8 | 8.4 | 0.8 | 3.4 | 9.3 |  |  |  |  |  |  |  |  |
| COC(=O)c1ccc(N(C)c2nc(C(=O)c3ccccc3)nc3ccc(F)cc23)cc1 | 39 | 37.6 | 25.9 | 46.1 | 16 |  |  |  |  |  |  |  |  |
| COc1cc(N(C)c2nc(C(=O)c3ccc(F)cc3)nc3ccccc23)ccc1C(=O)O | -8.9 | 5.3 | 6.4 | 5.1 | 12.3 |  |  |  |  |  |  |  |  |
| CC(C)[C@H](N)c1nc(Nc2ccc(OC(F)(F)F)cc2)c2ccccc2n1 | 13.3 | 4.4 | 7.2 | 11.4 | 2.6 |  |  |  |  |  |  |  |  |
| O=C(c1ccccc1)c1nc(Nc2ccc(N3CCOCC3)cc2)c2cc(F)ccc2n1 | 3.1 | 29.7 | 28.1 | 39.3 | 31.1 |  |  |  |  |  |  |  |  |
| CC(C)[C@H](N)c1nc(N(C)c2ccc(OC(F)(F)F)cc2)c2ccccc2n1 | 7 | 25.5 | 81.4 | 56.2 | 11.3 |  |  |  |  |  |  |  |  |
| COC(=O)c1ccc(Nc2nc(C(=O)c3ccc(F)cc3)nc3ccccc23)cc1OC | -5.7 | 4.6 | 8.5 | 8.5 | 8.2 |  |  |  |  |  |  |  |  |
| CN(c1ccc(N2CCOCC2)cc1)c1nc(C(=O)c2ccccc2)nc2ccc(F)cc12 | 35.4 | 34.5 | 35.4 | 3.3 | 40.3 |  |  |  |  |  |  |  |  |
| COc1cccc2c1C(=O)c1c(O)c3c(c(O)c1C2=O)C[C@@](O)(C(=O)CO)C[C@@H]3O[C@H]1C[C@H](N)[C@H](O)[C@H](C)O1 [DOXORUBICIN] | 80.1 | 81.1 | 61 | 30.1 | 71.7 | 4.4 |  |  |  | 2.3 | 2.4 |  |  |
| COc1cc(N2CCNCC2)ccc1N(C)c1nc(C(=O)c2ccc(F)cc2)nc2ccccc12 | 17.3 | 3.2 | 3.3 | 11.9 | 5.2 |  |  |  |  |  |  |  |  |
| COc1ccc(Nc2nc(C(=O)c3ccccc3)nc3ccc(F)cc23)cc1 | 3.4 | 2.4 | 0.5 | 2.9 | 2 |  |  |  |  |  |  |  |  |
| C=CC(=O)Nc1cccc(Nc2nc(C(=O)c3ccccc3)nc3ccc(F)cc23)c1 | 9.6 | 4.8 | 8.9 | 7.9 | 7 |  |  |  |  |  |  |  |  |
